Measured values: patent US20250108100A1, “C-TERMINAL FRAGMENT OF APOLIPOPROTEIN E AND APPLICATION THEREOF IN INHIBITING y-SECRETASE ACTIVITY” (SYNPHATEC (SHANGHAI) BIOPHARMACEUTICAL TECHNOLOGY CO., LTD., priority 2022, published 2025)
Entries after “also recorded” stand apart in the source; their conditions may differ.

Assays:
[1] = test system: human APP and β-secretase co-expressed in HEK 293T cells; assay: HEK 293T cells co-expressing APP and β-secretase (BACE1): Aβ ELISA and β-CTF Western blot; assay type: cell-based; settings: APP and β-secretase co-expressed, ELISA, vs GFP control
Protocol: The experiment was performed according to the standard procedure in the ELISA analysis kit of Invitrogen Company. • a) The target protein was expressed in HEK 293T cell line. Cells were subcultured one day before transfection, and transfection was performed when the degree of cell adhesion reached 70%-80%. The transfection reagent was lipofectamine2000 (ThermoFisher). • b) 4-6 hours post transfection, medium were replaced with fresh cell culture medium. • c) 36-48 hours post transfection, the cell culture medium was collected, and then the ELISA process was performed or the cell culture medium was frozen in a −80° C. refrigerator. • d) 50 μl of standard samples and experimental samples were added to each well of the 96-well plate. • e) 50 μl of human-derived Aβ40 or Aβ42 or mouse-derived Aβ40 detection antibody was added to each well of the 96-well plate. • f) The above samples were shaken gently and placed at room temperature for 3 hours. • g) The liquid in the well were removed, and the plate was washed 4 times with 1× wash buffer. • h) 100 μl of the buffer containing 1× anti-Rabbit IgG HRP was added. • i) The plate was shaken gently and placed at room temperature for […]. • j) The liquid in the well were removed, and the well was washed 4 times with 1× wash buffer. • k) 100 μl of Stabilized Chromogen was added to each well, and the plate was placed in the dark for 30 minutes at room temperature. • l) 100 μl of Stop Solution was added to each well. • m) The absorbance at 450 nm was measured with a microplate reader. 2.4 qRT-PCR
48 hours after transfection of HEK 293T cells and N2A cells, or 4.5 days after lentivirus infection of neurons, media and lysates were collected. Aβ40 and Aβ42 in the culture medium and cell lysates were detected by an Aβ ELISA kit as indicated in the protocol. (Invitrogen Technology; KHB3481 for human Aβ40, KHB3441 for human Aβ42 and KMB3481 for mouse Aβ40).
(§1) Data were analyzed by GraphPad Prism software (v6) using unpaired, paired, or one-sample t-tests. Aβ40 and Aβ42 levels were normalized to the corresponding GFP controls. α-CTF levels were normalized to FL-APP and corresponding GFP controls. All data are represented as mean±SEM. Statistical significance was defined as p<0.05. One, two, three and four stars (*) in the graph indicate p-values <0.05, <0.01, <0.001 and <0.0001, respectively.

[2] = test system: human APP co-expressed in HEK 293T cells; assay: α-CTF produced by APP co-expressed in HEK 293T cells (Western blot); assay type: cell-based; settings: Western blot, vs GFP control
Protocol: • a) A plasmid expressing the target protein in mammalian cells was constructed, and the protein expression promoter is CAG. • b) The target protein was expressed in HEK 293T cell line. Cells were subcultured one day before transfection, and transfection was performed when the degree of cell adhesion reached 70%-80%. The transfection reagent was lipofectamine2000 (ThermoFisher). • c) 4-6 hours post transfection, the medium were replaced with fresh cell culture medium. • d) 36-48 hours post transfection, the cells were lysed (10% 1M tris-HCl (pH=6.8), 4% SDS, 20% glycerol, 0.01% bromophenol blue), and the protein samples were collected and used for Western blot or stored in a −80° C. freezer. • e) Polyacrylamide gel electrophoresis. Before protein loading, the protein was boiled at 98° C. for 10 min, and then centrifuged at 12000 rpm for 10 min. Electrophoresis: 80V for the upper stacking gel; 120V for the lower separating gel. • f) Protein transfer. The filter paper was soaked in the electrophoresis solution before use, and the PVDF membrane was put in methanol for 10s to activate, and the gel after electrophoresis was taken out from the electrophoresis tank, put in the order of filter paper—PVD membrane—gel-filter paper from bottom to top, and they were put into the transfer instrument, with transferring in constant current at 0.1 A for 70 min. • g) Blocking and antibody incubation: the transferred PVDF membrane was placed in 5% BSA/TBST blocking solution, and blocked on a shaker at room temperature for 1 hour. The primary antibody was used to incubate at 4° C. overnight on a shaker (12-16 h); 1×TBST was used to wash three times, once every 10 minutes; the secondary antibody was used to incubate, shaked at room temperature for 1-2 h; 1×TBST was used to wash three times, once every 10 minutes. • h) Imaging by development: development was performed with ECL chemiluminescence hypersensitive chromogenic reagent.
Plasmids were transfected in HEK 293T or N2A cells for 36-48 hours and then lysed in cell lysis buffer [10% 1M tris-HCl (pH=6.8), 4% SDS, 20% glycerol, 0.01% bromophenol blue]. Lysates were shaken at room temperature for 10 min, then boiled for 10 min, and centrifuged at 12,000×g for 10 min. Proteins were run on 8% or 12% Tris-glycine SDS-PAGE and transferred to PVDF membranes (Life Technologies). Samples were incubated overnight at 4° C. with primary antibody diluted in 5% BSA buffer (in 1×TBST). After washing 3 times with 1×TBST, they were incubated with secondary antibody diluted in 5% BSA buffer (in 1×TBST) for 2 hours at room temperature. Finally, after washing 3 times with 1×TBST, the signal was detected by ECL Western blotting substrate (Solarbio, PE0010).
as §1

5×FAD mice = assay: Distribution of neuronally expressed ApoE around amyloid plaques in 5×FAD mice (immunofluorescence); assay type: in vivo, mouse; settings: lentiviral vectors
Protocol: Mice were anesthetized with isoflurane and perfused with 4% PFA. Dissected mouse brains were fixed overnight in 4% PFA and cryoprotected overnight in 30% sucrose. A cryostat (Leica CM3050S) was used to obtain frozen brain slices ([…]) from fixed and cryoprotected mouse brains. Floating slices were washed 3 times with 1×PBS and then permeabilized with 0.5% Triton-X in 1×PBS for 30 minutes. After blocking with 5% BSA in 1×PBS at room temperature for 1 h, the slices were incubated overnight at 4° C. in 5% BSA (in 1×PBS) buffer comprising the primary antibody. Slices were washed 3 times with 1×PBS and incubated with secondary antibody diluted in 5% BSA (1×PBS) buffer for 1 hour at room temperature. Samples were then washed 3 times with 1×PBS and mounted with Prolong Gold Antifade Mountant (Life Technology).
After being deeply anesthetized with isoflurane, mice (5 weeks old) were placed in a stereotaxic apparatus (RWD Instruments). The zero point (x, y, z, 0, 0, 0) is Bregma. Lentivirus (lentivirus-GFP, lentivirus-ApoE and lentivirus-ApoE-IRES-GFP) and AAV (AAV2/9-hSyn-EGFP-WPRE-pA and AAV2/9-hSyn-ApoECT; purchased from Shanghai Taitool Bioscience Co. Ltd.) were injected into the cortex (x, y, z, +/−1.6, 0, −1) or hippocampus (x, y, z, +/−1.5, −2, −1.5), injected 1 ul on each injection site. The mice were then returned to their cages for rehabilitation after surgery.

wild-type mice = assay: Endogenous Aβ40 in brain of wild-type mice after AAV neuronal expression (ELISA); assay type: in vivo, mouse; settings: hSyn promoter, vs GFP

ApoE2: human apolipoprotein E2, full-length 299 amino acid residues, SEQ ID NO: 12
production of Aβ40 [1]: significantly reduces production of Aβ40; also recorded: is reduced; also recorded: significantly reduced Aβ40 levels
α-CTF produced by co-expressed APP [2]: can significantly increase α-CTF; also recorded: significantly increased the α-CTF levels
accumulation around amyloid plaques (5×FAD mice): a similar distribution pattern was detected around amyloid plaques
endogenous Aβ40 in the brain (wild-type mice): also reduce endogenous Aβ40 production; also recorded: reduced endogenous Aβ40 in the brain of mice
